According to patent US20060025484A1 (priority 2003, published 2006):
Where “and” joins values, the source holds several entries; their conditions need not be identical. Equal values may be shown once.

Legend:
Water solubility = format: physicochemical
From the text: (§1) It is known that bis-(2-chloroethyl)-1-nitrosourea (hereinafter also referred to as BCNU) can be used in the treatment of various types of cancer. BCNU is lipophilic but it has a low solubility in water, so that additional solvents such as ethanol must be used in application. […] There has therefore been a search for alternatives to BCNU.

malignant brain tumors = conditions: phase II; cited from earlier work
gastric carcinomas = conditions: phase II; cited from earlier work
pancreatic carcinoma = experiment: Clinical phase II study in patients with pancreatic cancer; format: in vivo, human; design: key to Effect: partial remission (PR); minor response (MR)
From the text: • Pancreatic carcinoma • Clinical study: • Phase II: ¼ partial remission (PR) (44 weeks)
+1 minor response (MR) (23 weeks)
A minor response was obtained in another patient.

colorectal carcinoma = conditions: phase II; cited from earlier work
[1] = system: malignant supratentorial gliomas; conditions: cited from earlier work
Carcinogenicity = format: in vivo; conditions: in comparison with BCNU
From the text: (§2) It is assumed that this is attributable to the fact that when HECNU is used, there cannot be any carbamoyl reactions in the body because no carbamoylating metabolite is formed in its degradation in the body.

[2] = Gastrointestinal toxicity in patients; format: in vivo, human; conditions: nausea and vomiting in patients
[3] = system: tumors of the head and neck; experiment: In-vitro experiments on tumors of the head and neck; format: cell-based
pancreas lines = experiment: In-vitro experiments with various pancreas lines; format: cell-based
Method: Inhibiting effects in the low μg/mL range were also found in in-vitro experiments conducted with various pancreas lines, an inhibiting effect normally being achieved with an HECNU concentration of less than 10 μg/mL.

[4] = Organ toxicity (bone marrow, lungs, kidney); format: in vivo; conditions: in comparison with BCNU
From the text: as §1, §2

glutathione reductase = biological target: T1, glutathione reductase (Homo sapiens, UniProt P00390); experiment: Inhibition of glutathione reductase in the lungs; format: biochemical
T1 construct: from tissue; host or cells: lungs
T1 sequence (P00390 44-522): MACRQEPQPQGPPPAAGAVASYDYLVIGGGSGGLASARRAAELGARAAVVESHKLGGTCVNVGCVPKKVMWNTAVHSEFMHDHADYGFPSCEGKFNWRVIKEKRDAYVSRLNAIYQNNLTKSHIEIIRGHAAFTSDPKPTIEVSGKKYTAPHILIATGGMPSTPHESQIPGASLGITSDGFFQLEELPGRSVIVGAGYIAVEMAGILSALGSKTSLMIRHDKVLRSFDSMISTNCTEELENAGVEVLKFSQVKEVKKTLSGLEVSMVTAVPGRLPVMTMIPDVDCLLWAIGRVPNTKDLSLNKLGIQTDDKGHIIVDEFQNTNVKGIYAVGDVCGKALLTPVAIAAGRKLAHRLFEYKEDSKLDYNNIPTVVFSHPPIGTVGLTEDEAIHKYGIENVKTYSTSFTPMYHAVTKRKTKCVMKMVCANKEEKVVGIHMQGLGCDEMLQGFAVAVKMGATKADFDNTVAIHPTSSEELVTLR
From the text: as §2

[5] = system: human tumor xenograft models; experiment: Subcutaneously implanted human tumor xenograft models in the naked mouse; format: in vivo; conditions: s.c. human xenografts: soft tissue sarcomas, testicular tumors, thymomas, melanomas, mammary carcinomas, lung tumors, Wilms' tumors, renal carcinomas
From the text: Furthermore, the activity of HECNU has also been investigated in a number of subcutaneously implanted human tumor xenograft models in the naked mouse. […] These included soft tissue sarcomas, testicular tumors, thymomas, melanomas, mammary carcinomas, tumors of the lung, Wilms' tumors and renal carcinomas.

[6] = single patient with pancreas tumor, dose 100 mg/m^2

## O=NN(CCCl)C(=O)NCCO [HECNU, 1-(2-chloroethyl)-1-nitroso-3-(2-hydroxyethyl)urea]
Water solubility
  Water solubility: good water solubility
Malignant brain tumors
  Antineoplastic activity: significant antineoplastic activity
Gastric carcinomas
  Partial remission, patients treated: 31%
Pancreatic carcinoma; four treated patients with pancreatic cancer
  Partial remission, share of treated patients: ¼
Pancreatic carcinoma; [6]
  Effect: PR and MR
  Time to P (weeks): 44 weeks and 23 weeks
Colorectal carcinoma
  Activity and response rate: only marginal activities and response rates
[1]; compared with other nitrosoureas
  Toxicity profile: more favorable toxicity profile in comparison with other nitrosoureas
[1]; phase II, malignant supratentorial gliomas
  Activity: demonstrated its activity
Carcinogenicity
  Carcinogenicity: much weaker carcinogen than BCNU
[2]
  Gastrointestinal toxicity: only a low gastrointestinal toxicity
[3]
  Inhibiting effect in vitro: an inhibiting effect was also achieved
Pancreas lines
  HECNU concentration achieving an inhibiting effect: less than 10 μg/mL
[4]
  Bone marrow, pulmonary and renal toxicity: greatly reduced bone marrow toxicity, pulmonary toxicity and renal toxicity
Glutathione reductase
  Inhibition of glutathione reductase: does not inhibit glutathione reductase
[5]
  Inhibiting effect on tumor growth: good to very good inhibiting effects on tumor growth
